Laboratory results from patent US20050163848A1 (priority 2003, published 2005).
Like-named read-outs stand apart in the source and are kept apart here.

How the values were obtained:
colonic segments = assay: Macroscopic observation of excised colonic segments for irritation; type: in vivo; conditions: rats, 4 hour after intracolonic bolus 10 mg/rat
[1] = n-octanol/0.05M phosphate buffer, pH 7.4; cited from earlier work
[2] = rats; for AUC∞: time zero to infinity, based on 1 mg gabapentin/rat
in vivo = conditions: male, Sprague-Dawley, rat, plasma
[3] = in water and in both basic and acidic aqueous solutions; cited from earlier work
[4] = rats, normalized to 1 mg gabapentin/kg

Row | Structure (SMILES) | histopathological change of colonic mucosa visible to the naked eye (colonic segments) | log of the partition coefficient [1] | AUC∞ ([2]; colonic intubation 10 mg/rat) [ng · h/mL-mg] | AUC∞ ([2]; iv 1 mg/rat) [ng · h/mL-mg] | absorption after intracolonic bolus ([2]; ligated colon, 10 mg/rat, FIG. 5) | bioavailability (in vivo; iv, 1 mg/rat) [%] | bioavailability (in vivo; other: intracolonic bolus into the ligated colon, 10 mg/rat) [%] | solubility [3] | AUC (0~4 h) ([4]; duodenal, dose 14.8 ± 0.1 mg/kg) [ng·h/mL/mg] | AUC (0~4 h) ([4]; duodenal, dose 30.6 ± 1.7 mg/kg) [ng·h/mL/mg] | AUC (0~4 h) ([4]; duodenal, dose 59.8 ± 1.7 mg/kg) [ng·h/mL/mg] | AUC (0~4 h) ([4]; iv, dose 1 mg/kg, hour 4 point assumes log-linear decline) [ng·h/mL/mg]
1 | CCCCCCCCCCCCOS(=O)(=O)O.NCC1(CC(=O)O)CCCCC1 [gabapentin lauryl sulfate complex] | no histopathological change visible to the naked eye | – | – | – | – | – | – | – | – | – | – | –
2 | NCC1(CC(=O)O)CCCCC1 [gabapentin, 1-(aminomethyl)cyclohexaneacetic acid] | no histopathological change visible to the naked eye | −1.25 | 301.4 | 6090.3 | slow absorption | 100 | 4.9 | freely soluble | 1705.2 ± 257.2 | 1205.7 ± 276.3 | 726.1 ± 223.9 | 2727.1 ± 259.1
